The record followed here is a melting point compilation (Tetko et al.; mined from patent text by program, amines drawn as free bases though some values may be those of a salt).

As a reminder, the melting point is the temperature, or range, at which the solid turns liquid. `COC(=O)c1cccc2nc(SCCCN3CCN(CC(=O)Nc4c(SC)cc(C)nc4SC)CC3)oc12`: the melting point fell in the range of 76 to 79 °C.
The figure for `COc1ccc(C=CC(=O)C2C(=O)C=C(C)OC2=O)cc1O` (configuration not stated) is 217 to 219 °C; for `CC(=O)NCC=C(c1ccc(-c2ccccc2)cc1)c1ccc(-c2ccccc2)cc1` it is 246 to 249 °C; for `O=C1N=c2ccccc2=N1` it is 138 to 140 °C.
The figure for `Fc1ccc(CNc2nc(Nc3cccc(C(F)(F)F)c3)nc(C(F)(F)F)n2)cc1` is 106 to 107 °C; for `COC(=O)c1ccccc1NN=Cc1ccccc1` it is 66.5 to 67.5 °C.
The figure for `Cc1c(C(=O)Nc2ccc(N3CCN(c4ccc(Cl)cc4)CC3)c(C#N)c2)cnn1-c1ccc(Cl)cc1` is 265 °C; for `COC(=O)[C@@](C#N)(Cc1ccc(Br)cc1)[C@H](c1ccccc1OC)c1cccc2ccccc12` (relative stereo) it is 218 to 219 °C.
For the compound `NNC(=O)c1ccccc1OCC(F)(F)F`, the melting point lay within 102 to 104 °C.
The result for `CC(=O)N1CCC(NC(=O)Nc2ccc(F)cc2)CC1` reads 146 to 148 °C.
The compound `CC12CC(N3CCC(=O)CC3)C(O)CC1CCC1C2CCC2(C)C(O)C(N3CCCC3)CC12` (configuration not stated) registered a melting point of 136 to 138 °C.
Regarding `NS(=O)(=O)c1ccc(-c2noc(-c3cnn4c(C(F)F)cc(-c5ccc(C(F)(F)F)cc5)nc34)n2)cc1`, the melting point came out at 283 °C.
The figure for `O=Cc1cccc(-c2cnc3cnc(-c4ccc(O)cc4)nc3c2)c1` is 266 °C; for `CC(C)[C@H](NC(=O)OCc1ccccn1)C(=O)N[C@@H](Cc1ccccc1)C[C@H](O)[C@H](Cc1ccccc1)NC(=O)OCc1cccnc1` it is 172 to 174 °C; for `CCOc1ccc(C(Cl)=NOS(C)(=O)=O)cc1` it is 93 to 95.5 °C.
The figure for `O=c1[nH]c2c3ccccc3ccc2n(CC2CC2)c1=O` is 292 °C; for `CCCn1c(COCC)nc2c(N)nc3cc(OCC(=O)N4CCOCC4)ccc3c21` it is 213 °C.
The result for `O=c1[nH]c2ccc([N+](=O)[O-])cc2c(O)c1[N+](=O)[O-]` reads 197 to 198 °C; that for `O=C1NC(=O)C(=Cc2ccc(OCC3CN(c4ccccn4)CCO3)cc2)S1` (configuration not stated), 188 °C; that for `COc1cc(C(C)C)c2oc3ccccc3c2c1C(=O)Nc1c(Cl)cncc1Cl`, 209 to 211 °C.
`CC1(CSC#N)SC2C(NC(=O)Cc3ccccc3)C(=O)N2C1C(=O)OCC(Cl)(Cl)Cl` (configuration not stated) showed a melting point of 133 to 135 °C.
The figure for `CC(C)(C)OC(=O)NCc1ccc(C(=O)Nc2ccc(Nc3cc(-c4cccc5c4oc4ccccc45)ncn3)cc2)c(F)c1` is 255 °C; for `O=C1N(c2ccccc2Br)Cc2cnc(Nc3ccccc3)nc2N1CC1CCCCC1` it is 200 to 202 °C; for `COc1ccc(-c2nc(-c3ccc4oc(=O)[nH]c4c3)cs2)cc1OC` it is 271 to 272 °C.
Compound `Nc1nc(-n2cc(C(=O)O)c(=O)c3c(N)c(F)c(F)c(Cl)c32)c(F)cc1F` came in with a melting point of 280 °C.
The result for `CC(C)(C)c1ccc(-c2nnc(-c3ccc(C(=O)O)cc3)o2)cc1` reads 284 to 286 °C; that for `CCC(=O)C1=C(O)CC(c2c(C)cc(C)cc2C)CC1=O` (configuration not stated), 86 to 88 °C.
The figure for `O=C1Nc2ccccc2C12COc1cc3c(cc12)CCO3` (configuration not stated) is 105 to 107 °C.
The result for `Cc1cc2nc3c4cc(Br)ccc4n(CCN(C)C)c3nc2cc1C` reads 146 to 147 °C; that for `CN(Cc1ccccc1)C1Cc2cccc3[nH]c(=O)n(c23)C1` (configuration not stated), 145 to 149 °C.
For the compound `O=C(O)c1cc2ccccc2n1S(=O)(=O)c1cccc(Cl)c1`, the melting point lay within 216 to 217 °C.
The result for `COc1cc(OC)nc(Sc2cccc(Cl)c2C(=O)O)n1` reads 148 to 151 °C; that for `CC(C)c1cc(S(N)(=O)=O)c(C(C)C)cc1Br`, 145 to 152 °C.
In turn, `CCCn1nc2c(N)nc3ccccc3c2c1CC(C)(C)NS(C)(=O)=O` gave a melting point of 130 to 139 °C.
The figure for `N#CCCNC(=O)c1n[nH]cc1NC(=O)c1cc(Cl)ccn1` is 261 to 263 °C; for `Cn1c(=O)c2c(-c3nc(C4CC4)no3)ncn2c2ccccc21` it is 184 to 190 °C; for `COc1cc2c(c3c1OC(C)(C)C3)C(c1cccc(C(=O)N[C@H]3CNC3=O)c1)=NC(C)(C)C2` it is 154 to 157 °C.
The result for `COc1ccc(Nc2nc(Cl)nc(Cl)n2)cc1` reads 165 to 168 °C; that for `CC(=O)OCc1nnc(-c2ccc3occ(-c4cccc(OC(F)(F)F)c4)c3c2)o1`, 93 to 94 °C; that for `CCCCCCCCC#CCC#CCC#CCSCC(=O)NCCO`, 77 °C.
The figure for `CCCCCCCCCCCCCCCCCCOc1cc(OCc2ccccc2)cc(C(=O)O)c1` is 97 to 99 °C; for `N#Cc1cc([N+](=O)[O-])ccc1Oc1ccc(Cl)cc1` it is 163 to 164 °C; for `Cc1ccc(-c2nc(Cc3cc4cc(N(OCc5ccccc5)C(N)=O)ccc4o3)c(C)o2)cc1` it is 77 to 80 °C.
For `CC(C)Oc1ccc(CCCOc2cc(CCC(=O)O)n(-c3ccccc3)n2)c(Oc2ncc(C(F)(F)F)cc2Cl)c1`, the melting point lay within 86 to 88 °C.
The figure for `CCC1c2cccn2-c2ccc(F)cc2N1C(=O)c1ccc(OC)cc1OC` (configuration not stated) is 131 to 132 °C; for `CC(C)=CCCOc1c(-c2ccc(S(C)(=O)=O)cc2)cnn(-c2cccc(Cl)c2)c1=O` it is 110 to 111 °C; for `Cc1nc2c(OCc3c(Cl)ccc(N(C)C(=O)CNC=O)c3Cl)cccn2c1Br` it is 211 to 212 °C.
The figure for `C=C(C)Cc1c(O)cc(C)c(NC=O)c1C` is 207 to 209 °C.
The result for `CCc1cn(C2CC(O)C(CNC(=O)C(CC)c3ccccc3)O2)c(=O)[nH]c1=O` (configuration not stated) reads 235 to 236 °C; that for `CCOC(=O)C(C#N)(Cc1ccc(OC)c(OC)c1)C(OCC)OCC` (configuration not stated), 62 to 65 °C.
Take `Cc1cc2c3c(cc(C)c2[nH]c1=O)CC(C)(CBr)O3` (configuration not stated): the melting point was in the range of 257 to 259 °C.
The figure for `Cc1oc(-c2ccccc2)nc1CCOc1ccc(C#N)cc1` is 119 to 120 °C; for `O=C(Nc1ccccc1S(=O)(=O)NCCCn1cccn1)c1cccc(C(F)(F)F)c1` it is 108 to 111 °C.
The result for `CCN(CC)Cc1ccc2c(c1)-c1[nH]nc(-c3ccsc3)c1C2` reads 157 to 158 °C; that for `CCOC(=O)C(=NO)c1csc(C)n1`, 90 to 92 °C; that for `COC(=O)CCn1c(=O)n(CCN2CCN(c3ccccc3OC)CC2)c(=O)c2sccc21`, 151 to 152 °C.
Compound `Cc1cccc(OC2CN(C(N)=O)C2)c1` had a melting point of 167 to 168 °C.
The figure for `COC(=O)C(=NO)c1ccccc1` is 151 to 153 °C.
The result for `CN1CC(=O)N(C)C1=NC(=O)Nc1cccc(Cl)c1` reads 134 to 137 °C.
The result for `CC#CCOc1ccc(SC(C(=O)NO)c2ccc3ccccc3c2)cc1` (configuration not stated) reads 148 °C.
`O=C(O)c1cccc(-c2nc(-c3cccc(C(F)(F)F)c3)cs2)c1` displayed a melting point of 229 to 230 °C.
The figure for `C=CCN1CCC=C(c2ccc(C(C)(C)CCCCCC)cc2O)C1` is 109 to 110 °C.
